Values joined by “and” are separate entries in the source; they are usually repeats but may differ in a detail not shown here. Identical values can stand only once. “Also recorded” adds a separate entry of the source.
Key:
IL-21 = test: Phase 2 study: plasma Th17 related cytokines (MSD U-Plex), IL-21; assay type: in vivo, human
Description: (§1) A Phase 2, multi-centre, randomized, placebo-controlled, double-blind study of BIT225 in combination with ART (Atripla—efavirenz/emtricitabine/tenofovir DF) was undertaken in patients with HIV-1 infection that were treatment-naive. Patients were randomized into two groups on a 2:1 basis, with one group receiving BIT225 (100 mg QD; 6 patients: placebo; 3 patients), and one group receiving BIT225 (200 mg QD, 18 patients: placebo; 9 patients), with a total of 36 patients enrolled in the trial. The 100 mg BIT225 group was primarily included for detailed PK analyses due to limitations on the quantity of blood that could be drawn at time points coinciding with analyses of viral load decay, which were limited to the 200 mg cohort. All subjects received the standard dose of ART in addition to 12 weeks BIT225 or placebo study treatment. […]
(§2) Th17 cells regulate other immune cells, specifically neutrophils and macrophages, by secreting a variety of cytokines in response to pathogens. Plasma samples were analysed to determine the level of the Th17 related cytokines (IL-21, IFN-γ, IL-1p, IL-6, IL-10, IL-17A, IL-17E/IL-25, IL-17F, IL-22, and TNF-α) during the 12 week treatment period using electro-chemiluminescence MSD U-Plex Biomarker Group Th17 (Human Combo 2) Human Multiplex Assay (MesoScaleDiscovery, MD, USA).

IL-6 = test: Phase 2 study: plasma Th17 related cytokines (MSD U-Plex), IL-6; assay type: in vivo, human
Description: as §1, §2

HIV-1 = test: Phase 2 study: plasma HIV-1 viral load decay (Roche COBAS TaqMan HIV-1); assay type: in vivo, human; conditions: 200 mg BIT225 QD + ART vs placebo QD + ART, 12 weeks, treatment-naive HIV-1 patients
Description: (§3) A Phase 2, multi-centre, randomized, placebo-controlled, double-blind study of BIT225 in combination with ART (Atripla—efavirenz/emtricitabine/tenofovir DF) was undertaken in patients with HIV-1 infection that were treatment-naive. Patients were randomized into two groups on a 2:1 basis, with one group receiving BIT225 (100 mg QD; 6 patients: placebo; 3 patients), and one group receiving BIT225 (200 mg QD, 18 patients: placebo; 9 patients), with a total of 36 patients enrolled in the trial. The 100 mg BIT225 group was primarily included for detailed PK analyses due to limitations on the quantity of blood that could be drawn at time points coinciding with analyses of viral load decay, which were limited to the 200 mg cohort. All subjects received the standard dose of ART in addition to 12 weeks BIT225 or placebo study treatment. At the conclusion of the trial, patients remained on ART as per standard treatment protocols. HIV-1-infected subjects, males and females, aged 18 to 65 years inclusive, who were naive to ART were recruited. Individuals had HIV-1 RNA>5,000 copies/mL and CD4^+ T cell count>100 cells/mm^3.
(§4) There were two treatment cohorts. The first cohort received 100 mg capsule of BIT225 or placebo QD with ART for 12 weeks. […]
HIV-1 plasma viral load was determined in real time by Roche COBAS TaqMan HIV-1 currently approved version (Roche Diagnostics).

IL-17F = test: Phase 2 study: plasma Th17 related cytokines (MSD U-Plex), IL-17F; assay type: in vivo, human; conditions: BIT225 cohort vs placebo (data not shown)
Description: as §1, §2

[1] = tested on: CD28 on CD4^+ T cells infected with HIV-1 NL4-3; test: Plasma membrane CD28 expression on HIV-1 NL4-3 infected CD4+ T cells, flow cytometry; assay type: cell-based, human; conditions: 3 μM BIT225, WT HIV-1 NL4-3 infected cells, up to 72 h; dependent on Vpu expression
Description: (§5) Method of virus stock generation is as described by Bobardt et al., PNAS, 2008; 105(14):5525-5530. Briefly, 293T cells were transfected with proviral plasmid (9 μg) and vesicular stomatitis virus G (VSV-G) envelope plasmid (1 μg). At day 2, VSV-G pseudotyped viruses (5 μg of p24) were harvested and used to acutely infect Jurkat cells (2×10^6 cells). Two days after infection, viruses were harvested, and p24 content was measured by ELISA (PerkinElmer). Viral infections were conducted in triplicate with 10 or 100 ng of p24 derived from transfected 293T cells. The following proviral constructs were used: wild-type HIV-1 pNL4.3 […] tropic[WT], pNL4.3 ANef, pNL4.3 AVpu, pNL4.3 ANefAVpu, and HIV-1 pBaL-1 CCR5(R5) tropic[WT].
(§6) CD4^+ T cell isolation as previously described by Geijtenbeek et al., Cell, 2000, 100:587-597. Human PBMC were purified from fresh blood by banding on Ficoll-Hypaque (30 min, 800 g, 25° C.; Amersham Biosciences). Primary human CD4^+ T cells were purified from PBMC by positive selection with anti-CD4 Dynabeads and subsequent release using Detachabead (Dynal Biotech). […]
(§7) Cells were treated with 3 μM BIT225 or DMSO control, and expression of CD28, CCR7, CD80 and CD86 measured by flow cytometry at 24, 48 and 72 hour time points. […]

soluble CD163 (sCD163) = test: Phase 2 study: plasma sCD163 by Macro163 ELISA; assay type: in vivo, human
Description: as §3, §4
The macrophage and monocyte activation marker sCD163 was measured in plasma by Macro163™ ELISA (IQ Products, Groningen, The Netherlands).

[2] = Phase 2 study: pharmacokinetics (plasma, LC/MS/MS); assay type: in vivo, human
Description: as §3
There were two treatment cohorts. The first cohort received 100 mg capsule of BIT225 or placebo QD with ART for 12 weeks. Cohort 2 were given two 100 mg capsules BIT225 (200 mg BIT225) or placebo QD with ART. ART was 1 fixed dose combination tablet of Atripla. […]

TNF-α = test: Phase 2 study: plasma Th17 related cytokines (MSD U-Plex), TNF-α; assay type: in vivo, human; conditions: BIT225 cohort vs placebo (data not shown)
Description: as §1, §2

[3] = Phase 2 study: safety and tolerability; assay type: in vivo, human
Description: as §3
(§8) There were two treatment cohorts. The first cohort received 100 mg capsule of BIT225 or placebo QD with ART for 12 weeks. Cohort 2 were given two 100 mg capsules BIT225 (200 mg BIT225) or placebo QD with ART. ART was 1 fixed dose combination tablet of Atripla.
The safety of the experimental treatments was assessed by monitoring adverse events, vital signs, ECG parameters, clinical laboratory tests (haematology, clinical chemistry, coagulation and urinalysis) and physical examinations.

[4] = tested on: CD80 on MDM infected with HIV-1 NL4-3; test: Plasma membrane CD80 expression on HIV-1 NL4-3 infected MDM, flow cytometry; assay type: cell-based, human
Description: as §5
(§9) Blood-derived CD4^+ T lymphocytes and MDM were isolated as described in Saphire et al., J Virol 2001, 75:9187-9200. CD4^+ T cells and monocytes were extracted from the blood of three donors that were CCR5-Delta32 negative. […]
as §7

IL-10 = test: Phase 2 study: plasma Th17 related cytokines (MSD U-Plex), IL-10; assay type: in vivo, human; conditions: BIT225 cohort vs placebo (data not shown)
Description: as §1, §2

[5] = tested on: activated CD8^+ cell (CD8^+/HLA-DR^+/CD38^+); test: Phase 2 study: activated CD8+ T cell numbers by flow cytometry; assay type: in vivo, human; conditions: 200 mg BIT225 QD + ART vs placebo + ART, 12 weeks; ±29 SEM; P<0.01
Description: as §3, with “Individuals had HIV-1 RNA>5,000 copies/mL and CD4^+ T cell count>100 cells/mm^3.” left out
(§10) Analyses for cell populations (T cells and NK cells) were performed in real time by flow cytometry (CD4^+, CD8^+, CD38^+, and HLA-DR^+ for T cells, and CD16^+, CD45^+ and CD56^+ for NK cells). […] Immune activation markers measured by flow cytometry were performed in real time alongside CD4^+, CD8^+ and CD14^+ enumeration at HIV-NAT laboratory, Bangkok Thailand.

IFN-γ = test: Phase 2 study: plasma Th17 related cytokines (MSD U-Plex), IFN-γ; assay type: in vivo, human
Description: as §1, §2

[6] = tested on: CD86 on MDM infected with HIV-1 NL4-3; test: Plasma membrane CD86 expression on HIV-1 NL4-3 infected MDM, flow cytometry; assay type: cell-based, human
Description: as §5, §9, §7

[7] = tested on: activated CD4^+ T cells (CD4^+/HLA-DR^+/CD38^+); test: Phase 2 study: activated CD4+ T cell numbers by flow cytometry; assay type: in vivo, human
Description: as §3, with “Individuals had HIV-1 RNA>5,000 copies/mL and CD4^+ T cell count>100 cells/mm^3.” left out
as §10

NK cells = test: Phase 2 study: NK cell numbers by flow cytometry; assay type: in vivo, human
Description: as §3, §8
Analyses for cell populations (T cells and NK cells) were performed in real time by flow cytometry (CD4^+, CD8^+, CD38^+, and HLA-DR^+ for T cells, and CD16^+, CD45^+ and CD56^+ for NK cells). ELISA assays were run for sCD163 and Th17 related cytokines. Immune activation markers measured by flow cytometry were performed in real time alongside CD4^+, CD8^+ and CD14^+ enumeration at HIV-NAT laboratory, Bangkok Thailand.

IL-1 B = test: Phase 2 study: plasma Th17 related cytokines (MSD U-Plex), IL-1 B; assay type: in vivo, human; conditions: BIT225 cohort vs placebo (data not shown)
Description: as §1, §2

[8] = tested on: CCR7 on CD4^+ T cells infected with HIV-1 NL4-3; test: Plasma membrane CCR7 expression on HIV-1 NL4-3 infected CD4+ T cells, flow cytometry; assay type: cell-based, human
Description: as §5, §6, §7

[9] = 3 μM BIT225, ΔNefΔVpu HIV-1 NL4-3 double mutant

## Cn1cc(-c2cccc3cc(C(=O)NC(=N)N)ccc23)cn1 [BIT225, N-carbamimidoyl-5-(1-methylpyrazol-4-yl)naphthalene-2-carboxamide]
IL-21; 200 mg BIT225 QD + ART vs placebo + ART, P=0.02
  Plasma IL-21 versus placebo over the first 3 weeks (ANOVA): statistically significant increase; also recorded: statistically significantly increased
IL-21; BIT225 + ART
  Time of peak plasma IL-21: 3 week
IL-6; BIT225 + ART
  Subjects with transient spike of plasma IL-6 in first 3 weeks: 8 of 18
IL-6; BIT225 cohort vs placebo (data not shown)
  IL-6 response after 3 weeks, change from baseline (Log10): remained higher than placebo
HIV-1
  Plasma HIV-1 RNA decline versus placebo: declined in a similar manner
IL-17F
  IL-17F production versus placebo: no difference between cohorts
[1]
  CD28 expression on CD4+ T cells: partial restoration
Soluble CD163 (sCD163); 200 mg BIT225 QD + ART vs placebo + ART, 12 weeks, ±SE, P=0.036
  Linear model estimate β1 of larger overall decrease in sCD163 for BIT225 versus placebo: 208 ± 99 ng/mL
Soluble CD163 (sCD163); BIT225 + ART vs ART + placebo
  sCD163 over 12 weeks compared to ART alone: significantly reduced; also recorded: statistically significant decline
[2]; co-administration (results not shown)
  Effect of BIT225 on the PK characteristics of Atripla (ART): did not significantly affect; also recorded: no significant impact
[2]; intensive PK sampling, 100 mg cohort
  Plasma exposures: within the expected timeframes and concentration ranges
TNF-α
  TNF-α versus placebo: no statistical differences
[3]; 100 and 200 mg QD cohorts with ART, 12 weeks
  Tolerability / safety: safe and well tolerated
[3]; BIT225 100 mg cohort
  QTcB in one discontinued subject (mild QTcB prolongation, Day 17), considered not related to BIT225 or Atripla: > 480 ms
  Subjects who discontinued the study early due to AEs: Two
[3]; all cohorts
  Serious AEs or deaths: no serious AEs (SAEs) or deaths
[4]; 3 μM BIT225, WT or ΔNef virus infected cells (express Vpu)
  Plasma membrane CD80 expression on MDM: partial restoration
[4]; [9]
  Plasma membrane CD80 expression on MDM: no observable effect
IL-10
  IL-10 levels versus placebo over 12 weeks: not statistically significant
[5]
  Estimated average difference in activated CD8+ T cells, BIT225 cohort versus placebo (two-factor linear model): 85 cells/ml
IFN-γ; BIT225 cohort (data not shown)
  Subjects with IFN-γ transient spike: 16 of 18
IFN-γ; BIT225 cohort + ART
  IFN-γ cohort mean response: transient spike at Day 14
[6]; 3 μM BIT225, WT or ΔNef virus infected cells
  Plasma membrane CD86 expression on MDM: partial restoration
[6]; [9]
  Plasma membrane CD86 expression on MDM: no observable effect
[7]; 100 mg BIT225 QD + ART (data not shown)
  Time activated CD4+ T cells remained elevated: approximately 50 days
[7]; 200 mg BIT225 QD + ART vs placebo + ART, 12 weeks
  Change from baseline of activated CD4+ T cell numbers compared to placebo: sustained delay in decline; also recorded: statistically significant delayed reduction
NK cells; 200 mg BIT225 QD + ART vs placebo + ART, 12 weeks, SEM, P<0.01
  Estimated average difference in NK cells, BIT225 cohort versus placebo (two-factor linear model): 71 cells/ml and 71±23 cells/ml
NK cells; BIT225 + ART
  Time to peak of NK cell numbers after commencing treatment: 24 to 48 h
NK cells; BIT225 + ART, 12-week treatment
  NK cell numbers during treatment versus placebo: remained higher
IL-1 B
  IL-1 B production versus placebo: no statistical differences
[8]; 3 μM BIT225, WT HIV-1 NL4-3-infected cells, dependent on Vpu expression
  CCR7 expression on CD4+ T cells: partial restoration
[8]; 3 μM BIT225, ΔVpu virus
  CCR7 downregulation by Nef expression alone: not affected
